{"source": "patent US7763429B2", "about": "“Compound containing farnesyl diphosphate for modulating TRPV3 function and use thereof” (Korea University Industry and Academic Collaboration …, priority 2008, dated 2010)", "key": {"[1]": {"target": "T1, mTRPV3 (Mus musculus, UniProt Q8K424, A9V)", "T1 construct": "transiently transfected with plasmid DNA containing polynucleotide encoding; expressed in transfected cells; host or cells: HEK293T (ATCC CRL-11268), transient", "T1 sequence (Q8K424 1-791 A9V)": "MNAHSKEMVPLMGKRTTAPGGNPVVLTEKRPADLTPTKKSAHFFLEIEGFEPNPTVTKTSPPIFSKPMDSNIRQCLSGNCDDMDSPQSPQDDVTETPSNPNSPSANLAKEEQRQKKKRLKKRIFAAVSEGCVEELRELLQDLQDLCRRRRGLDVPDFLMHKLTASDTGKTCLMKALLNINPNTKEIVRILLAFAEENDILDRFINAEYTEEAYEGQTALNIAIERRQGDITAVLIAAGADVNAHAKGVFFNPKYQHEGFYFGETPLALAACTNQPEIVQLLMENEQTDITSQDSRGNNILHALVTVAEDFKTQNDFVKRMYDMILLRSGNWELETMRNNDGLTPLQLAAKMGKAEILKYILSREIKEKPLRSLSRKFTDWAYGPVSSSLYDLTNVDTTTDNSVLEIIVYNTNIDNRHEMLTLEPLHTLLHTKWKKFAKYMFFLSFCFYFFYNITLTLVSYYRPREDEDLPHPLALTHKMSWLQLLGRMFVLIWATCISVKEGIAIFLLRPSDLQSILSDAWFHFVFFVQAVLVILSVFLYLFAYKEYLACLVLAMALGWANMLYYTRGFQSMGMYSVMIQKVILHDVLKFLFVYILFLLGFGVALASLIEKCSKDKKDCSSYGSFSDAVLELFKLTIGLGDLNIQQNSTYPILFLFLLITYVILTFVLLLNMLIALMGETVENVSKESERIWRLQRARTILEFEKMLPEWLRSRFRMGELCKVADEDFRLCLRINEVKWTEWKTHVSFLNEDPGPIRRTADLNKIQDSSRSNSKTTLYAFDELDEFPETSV", "experiment": "Fluo-3 calcium imaging of mTRPV3 transfected HEK293T cells", "format": "cell-based", "method": "(§1) HEK293T cell line (ATCC CRL-11268) was transiently transfected with plasmid DNA containing polynucleotide encoding […] (SEQ. ID. NO: 1), rTRPV2 (SEQ. ID. NO: 2), mTRPV3 (SEQ. ID. NO: 3), rTRPV4 (SEQ. ID. NO: 4), mTRPM8 (SEQ. ID. NO: 5) or mTRPA1 (SEQ. ID. NO: 6).\n(§2) Particularly, the HEK293T cell line was transiently transfected with 3 μg/35 mm dish of rTRPV1, rTRPV2, mTRPV3, rTRPV4, mTRPM8 and mTRPA1 plasmid DNA, and 600 ng/well of pCDNA3 (Invitrogen Corp., USA; containing green fluorescent protein (GFP) cDNA) using Fugene6 (Roche Diagnostics, USA) according to manufacturer's instruction. The transformed cells were cultured in DMEM/F12 medium containing 10% FBS and 1% penicillin/streptomycin in a CO2 incubator for 24 hours. The cells were smeared on poly-L-lysine-coated glass coverslips, followed by further culture for 10-24 hours.\nThe mTRPV3 transfected cell line prepared in Example 1 was treated with FPP at different concentrations from 0.1 to 1,000 nM.\n(§3) Particularly, the transfected cell line of Example <3-1> was loaded with Fluo-3AM (5 μM; Sigma Aldrich, USA) in the bath solution (140 mM NaCl, 5 mM KCl, 2 mM CaCl2, 1 mM MgCl2, 10 mM HEPES; adjusted to pH 7.4 with NaOH) containing 0.02% pluronic acid (Invitrogen, USA) at 37° C. for 1 hour. Calcium imaging was performed with LSM5 Pascal confocal microscope (Carl Zeiss, Germany), and time-lapse images (excitation 488 nm/emission 514 nm) were collected every 3 seconds using Carl Zeiss ratio tool software (Carl Zeiss, Germany). Mean value curve of calcium influx response (n=12−62 per each experimental values) was made by Hill plot.\n(§4) The TRPA1, TRPV1, TRPV2, TRPV3, TRPV4 and TRPM8 transfected cell lines prepared by the method of Example 1 and the non-transfected HEK cell line (control group) were treated with 1 μM of FPP. Calcium imaging was performed with the transfected cell lines treated as the above by the same manner as described in Example <3-2>.\nas §4, with “with 10” for “with 1”, “of IPP (isopentenyl pyrophosphate: Biomol, USA) and 10 μM of GGPP (geranyl-geranyl pyrophosphate: Biomol, USA), the TRPV3 regulator analogues.” for “of FPP.”"}, "[2]": {"target": "T1, mTRPV3", "experiment": "Whole-cell voltage-clamp recording of mTRPV3 transfected HEK293T cells", "format": "cell-based", "settings": "for TRPV3 activity (whole cell current): mTRPV3 transfected HEK293T cells", "method": "as §1, §2\nThe mTRPV3 transfected cell line prepared in Example 1 was treated with 1 μM of FPP (Biomol, USA), 4 mM of camphor (Sigma-Aldrich, USA) and ruthenium red (RR; Sigma-Aldrich, USA) at a required time intervals as shown in FIG. 1a. Stock solutions were made using water or DMSO, and were diluted with test solutions before use.\nWhole-cell voltage-clamp recording, one of the patch-clamp techniques, was performed with the transfected cell line of Example <1-1> according to the method of Bandel M, et al. (Neuron 41:849-857, 2004).\nParticularly, the extracellular solution (140 mM NaCl, 5 mM KCl, 2 mM CaCl2, 1 mM MgCl2, 10 mM HEPES; titrated to pH 7.4 with NaOH) and the pipette solution (140 mM CsCl, 5 mM EGTA, 10 mM HEPES, 2.0 mM MgATP, 0.2 mM NaGTP; titrated to pH 7.2 with CSOH) were used. The potential was held at −60 mV for 250 ms, voltage-ramp pulsed from −80 mV to +80 mV for […] and returned to −60 mV for 250 ms, which was repeated without intersweep. This experiment was repeated 5 times."}, "[3]": {"test_system": "HaCat skin cells", "experiment": "Artificial wound recovery: migration and proliferation of HaCat skin cells", "format": "cell-based", "settings": "1 μM of FPP, 12 hours after the treatment", "method": "HaCat (ATCC, CCL-228) cell line was seeded in a 24-well plate. The present inventors drew lines 1 mm deep on the well fully filled with the cells to make artificial wound. The wounded cells were treated with FPP (1 μM), camphor (4 mM), RR (20 μM) and GGPP (10 μM) respectively and incubated in a CO2 incubator for 12 hours. The control group was not-treated. The width of recovered wound was measured under microscope and compared with that at the beginning, which was presented as wound recovery rate. All the experiments were performed on DMEM/FBS. Floating cells, which means dead cells, after making wound, were eliminated by using PBS to eliminate variables caused by dead cells. The cells were observed under microscope (×40, IX 71 OLYMPUS), and distance was measured by using image analysis program (Meta-flour 7.1, Molecular Devices, USA)."}, "[4]": {"target": "T2, mTRPM8 (Mus musculus, UniProt Q8R4D5)", "T2 construct": "transiently transfected with plasmid DNA containing polynucleotide encoding; expressed in transfected cells; host or cells: HEK293T (ATCC CRL-11268), transient", "experiment": "Fluo-3 calcium imaging of TRPM8 transfected HEK293T cells", "format": "cell-based", "settings": "1 μM of FPP", "method": "as §1, §2\nas §3, with “Mean value curve of calcium influx response (n=12−62 per each experimental values) was made by Hill plot.” left out"}, "[5]": {"target": "T3, rTRPV1 (Rattus norvegicus, UniProt O35433)", "T3 construct": "transiently transfected with plasmid DNA containing polynucleotide encoding; expressed in transfected cells; host or cells: HEK293T (ATCC CRL-11268), transient", "experiment": "Fluo-3 calcium imaging of TRPV1 transfected HEK293T cells", "format": "cell-based", "settings": "1 μM of FPP", "method": "as §1, §2\nas §3, with “Mean value curve of calcium influx response (n=12−62 per each experimental values) was made by Hill plot.” left out"}, "[6]": {"target": "T4, rTRPV2 (Rattus norvegicus, UniProt Q9WUD2, A713V/L151P/T158I)", "T4 construct": "transiently transfected with plasmid DNA containing polynucleotide encoding; expressed in transfected cells; host or cells: HEK293T (ATCC CRL-11268), transient", "T4 sequence (Q9WUD2 1-761 L151P/T158I/A713V)": "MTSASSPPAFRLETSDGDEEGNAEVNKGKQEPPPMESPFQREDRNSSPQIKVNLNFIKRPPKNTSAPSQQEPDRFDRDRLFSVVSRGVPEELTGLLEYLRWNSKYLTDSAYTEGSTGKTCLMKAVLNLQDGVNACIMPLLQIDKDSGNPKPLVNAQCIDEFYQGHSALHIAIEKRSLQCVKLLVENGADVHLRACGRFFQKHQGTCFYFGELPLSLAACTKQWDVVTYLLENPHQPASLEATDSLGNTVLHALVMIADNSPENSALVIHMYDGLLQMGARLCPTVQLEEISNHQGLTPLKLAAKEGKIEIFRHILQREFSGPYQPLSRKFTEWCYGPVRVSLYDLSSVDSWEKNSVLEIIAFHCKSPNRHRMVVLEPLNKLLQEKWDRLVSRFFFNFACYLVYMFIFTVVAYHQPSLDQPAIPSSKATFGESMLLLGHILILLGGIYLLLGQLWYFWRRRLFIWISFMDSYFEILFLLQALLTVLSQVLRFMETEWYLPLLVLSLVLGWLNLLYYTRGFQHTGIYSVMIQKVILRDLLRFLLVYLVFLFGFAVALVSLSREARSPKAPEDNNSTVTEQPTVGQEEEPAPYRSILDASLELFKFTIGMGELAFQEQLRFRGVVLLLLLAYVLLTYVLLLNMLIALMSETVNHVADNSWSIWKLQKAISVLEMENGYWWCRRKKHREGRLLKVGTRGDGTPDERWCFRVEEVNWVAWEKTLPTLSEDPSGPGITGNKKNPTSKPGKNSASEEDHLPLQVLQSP", "experiment": "Fluo-3 calcium imaging of TRPV2 transfected HEK293T cells", "format": "cell-based", "settings": "1 μM of FPP", "method": "as §1, §2\nas §3, with “Mean value curve of calcium influx response (n=12−62 per each experimental values) was made by Hill plot.” left out"}, "[7]": {"test_system": "mice", "experiment": "Acute hind paw licking/flicking behaviors after CFA inflammatory sensitization", "format": "in vivo", "settings": "CFA-injected right hind paw, FPP injected into hind paw, 20 minutes", "method": "Inflammatory sensitization by FPP was investigated. Particularly, 10 μl of CFA (complete Freund's adjuvant; Sigma Aldrich, USA) was injected to the right hind paws of mice 24 hours before the FPP injection. Before the experiment, the mice were adapted for one hour to the experimental environment. 10 μl of vehicle (saline containing 3% DMSO and 0.5% Tween 80) alone or 10 μl of vehicle containing FPP (3 mM) was injected to the right hind paws of the mice. The time spent for the hind paw licking/flicking behaviors in mice were measured according to the method of Bandell M, et al. (Neuron 41:849-857, 2004) and Moqrich A, et al. (Science 307:1468-1472, 2005), for 20 minutes. Control: not-treated; Experimental group 1.20 μl of CFA+300 μM of FPP PBS solution (black circle); Experimental group 2.20 μl of CFA (white circle)."}, "[8]": {"target": "T5, rTRPV4 (Rattus norvegicus, UniProt Q9ERZ8)", "T5 construct": "transiently transfected with plasmid DNA containing polynucleotide encoding; expressed in transfected cells; host or cells: HEK293T (ATCC CRL-11268), transient", "T5 sequence (Q9ERZ8 whole entry)": "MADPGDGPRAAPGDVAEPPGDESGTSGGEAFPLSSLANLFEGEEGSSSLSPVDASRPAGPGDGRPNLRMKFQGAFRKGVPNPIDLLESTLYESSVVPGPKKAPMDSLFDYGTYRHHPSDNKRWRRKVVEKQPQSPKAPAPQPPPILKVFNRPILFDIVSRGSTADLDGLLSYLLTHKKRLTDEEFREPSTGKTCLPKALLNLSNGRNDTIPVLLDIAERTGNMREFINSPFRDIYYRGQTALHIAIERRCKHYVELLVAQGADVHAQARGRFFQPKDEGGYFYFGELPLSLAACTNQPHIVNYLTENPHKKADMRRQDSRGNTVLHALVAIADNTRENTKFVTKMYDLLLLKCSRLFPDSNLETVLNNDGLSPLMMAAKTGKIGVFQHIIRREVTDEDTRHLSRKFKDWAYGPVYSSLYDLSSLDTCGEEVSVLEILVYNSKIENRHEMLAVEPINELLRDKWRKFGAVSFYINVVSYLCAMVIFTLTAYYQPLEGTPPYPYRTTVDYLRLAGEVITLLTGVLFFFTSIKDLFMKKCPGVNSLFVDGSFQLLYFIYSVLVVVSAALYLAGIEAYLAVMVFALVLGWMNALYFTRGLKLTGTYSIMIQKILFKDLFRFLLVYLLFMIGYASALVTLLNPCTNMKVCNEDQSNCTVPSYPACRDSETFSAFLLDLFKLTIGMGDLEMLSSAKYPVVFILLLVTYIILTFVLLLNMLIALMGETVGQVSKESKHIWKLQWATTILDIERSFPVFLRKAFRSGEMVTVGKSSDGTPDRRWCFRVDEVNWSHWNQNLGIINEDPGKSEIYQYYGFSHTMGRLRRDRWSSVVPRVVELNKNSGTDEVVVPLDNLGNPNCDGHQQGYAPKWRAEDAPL", "experiment": "Fluo-3 calcium imaging of TRPV4 transfected HEK293T cells", "format": "cell-based", "settings": "1 μM of FPP", "method": "as §1, §2\nas §3, with “Mean value curve of calcium influx response (n=12−62 per each experimental values) was made by Hill plot.” left out"}, "[9]": {"target": "T6, mTRPA1 (Mus musculus, UniProt Q8BLA8)", "T6 construct": "transiently transfected with plasmid DNA containing polynucleotide encoding; expressed in transfected cells; host or cells: HEK293T (ATCC CRL-11268), transient", "T6 sequence (Q8BLA8 whole entry)": "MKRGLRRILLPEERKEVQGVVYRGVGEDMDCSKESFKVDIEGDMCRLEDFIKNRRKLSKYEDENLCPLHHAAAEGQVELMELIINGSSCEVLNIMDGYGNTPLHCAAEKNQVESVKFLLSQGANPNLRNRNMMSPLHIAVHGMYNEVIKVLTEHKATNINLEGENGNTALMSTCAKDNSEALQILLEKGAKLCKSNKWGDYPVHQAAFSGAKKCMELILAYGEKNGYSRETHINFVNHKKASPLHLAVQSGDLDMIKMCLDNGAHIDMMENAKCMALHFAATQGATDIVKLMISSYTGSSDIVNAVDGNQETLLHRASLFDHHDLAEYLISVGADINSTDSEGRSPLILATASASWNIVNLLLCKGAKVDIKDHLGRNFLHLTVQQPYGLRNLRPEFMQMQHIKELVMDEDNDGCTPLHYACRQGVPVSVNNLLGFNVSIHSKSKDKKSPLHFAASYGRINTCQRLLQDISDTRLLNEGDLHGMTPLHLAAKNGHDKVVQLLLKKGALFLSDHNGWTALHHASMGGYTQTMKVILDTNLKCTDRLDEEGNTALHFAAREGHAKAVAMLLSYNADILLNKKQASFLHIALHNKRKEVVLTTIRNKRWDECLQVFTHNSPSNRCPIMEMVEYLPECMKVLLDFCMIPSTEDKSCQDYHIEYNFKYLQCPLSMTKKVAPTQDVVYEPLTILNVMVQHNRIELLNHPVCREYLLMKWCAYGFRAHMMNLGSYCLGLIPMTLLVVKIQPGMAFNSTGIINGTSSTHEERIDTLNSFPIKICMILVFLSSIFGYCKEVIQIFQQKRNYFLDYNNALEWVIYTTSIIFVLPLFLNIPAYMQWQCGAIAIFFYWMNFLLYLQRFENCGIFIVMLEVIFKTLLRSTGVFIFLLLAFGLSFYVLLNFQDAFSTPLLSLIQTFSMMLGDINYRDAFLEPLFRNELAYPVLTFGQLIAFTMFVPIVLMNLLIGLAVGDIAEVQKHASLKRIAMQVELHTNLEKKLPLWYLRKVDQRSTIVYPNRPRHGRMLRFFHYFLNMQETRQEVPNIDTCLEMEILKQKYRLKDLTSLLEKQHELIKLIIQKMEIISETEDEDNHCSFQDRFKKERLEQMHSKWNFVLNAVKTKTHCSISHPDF", "experiment": "Fluo-3 calcium imaging of TRPA1 transfected HEK293T cells", "format": "cell-based", "settings": "1 μM of FPP", "method": "as §1, §2\nas §3, with “Mean value curve of calcium influx response (n=12−62 per each experimental values) was made by Hill plot.” left out"}}, "data": [{"smiles": "CC(C)=CCC/C(C)=C/CC/C(C)=C/CC/C(C)=C/COP(=O)(O)OP(=O)(O)O", "note": "[GGPP, geranyl-geranyl pyrophosphate, reference compound]", "values": [{"measurement": "TRPV3 activation (calcium imaging)", "setting": "[1]; 10 μM of analogue", "value": "did not induce TRPV3 activation"}]}, {"smiles": "CC12CCC(CC1=O)C2(C)C", "note": "(centres unmarked) [camphor]", "values": [{"measurement": "TRPV3 activity (whole cell current)", "setting": "[2]; camphor 4 mM", "value": "the activity was not so much increased"}]}, {"smiles": "N.N.N.N.N.N.N.N.N.N.N.N.N.N.[Cl-].[Cl-].[Cl-].[Cl-].[Cl-].[Cl-].[O-2].[O-2].[Ru+3].[Ru+3].[Ru+4]", "note": "[ruthenium red]", "values": [{"measurement": "TRPV3 activity (whole cell current) on treatment with the TRP ion channel blocker", "setting": "[2]; ruthenium red applied to the activated mTRPV3 transfected cells", "value": "activity was reduced"}]}, {"smiles": "CC(C)=CCCC(C)=CCCC(C)=CCOP(=O)(O)OP(=O)(O)O", "note": "[FPP, 3,7,11-trimethyldodeca-2,6,10-trien-1-yl trihydrogen diphosphate]", "values": [{"measurement": "migration and proliferation of HaCat skin cells (wound recovery rate)", "setting": "[3]", "value": "significantly inhibited"}, {"measurement": "TRPM8 activation (calcium imaging)", "setting": "[4]", "value": "did not exhibited activity"}, {"measurement": "TRPV1 activation (calcium imaging)", "setting": "[5]", "value": "did not exhibited activity"}, {"measurement": "TRPV2 activation (calcium imaging)", "setting": "[6]", "value": "did not exhibited activity"}, {"measurement": "hind paw licking/flicking behavior (pain)", "setting": "[7]", "value": "significantly increased licking/flicking behavior"}, {"measurement": "TRPV4 activation (calcium imaging)", "setting": "[8]", "value": "did not exhibited activity"}, {"measurement": "TRPA1 activation (calcium imaging)", "setting": "[9]", "value": "did not exhibited activity"}, {"measurement": "TRPV3 activation (calcium imaging)", "setting": "[1]; 1 μM of FPP", "value": "activated"}, {"measurement": "maximal effective dose", "setting": "[1]; calcium influx response, FPP 0.1 to 1,000 nM", "value": "approximately 1 μM"}, {"measurement": "EC50", "setting": "[1]; calcium influx response, FPP 0.1 to 1,000 nM, Hill plot, read-out: EC50 (effective concentration 50%) to TRPV3", "value": 0.0319, "unit": "µM"}, {"measurement": "TRPV3 activity (whole cell current)", "setting": "[2]; 1 μM of FPP, +60 mV and −60 mV", "value": "significant increase of TRPV3 activity"}]}]}
